The record followed here is patent US20070020183A1, “Perfluoroalkyl-containing complexes, process for their production as well as their use” (priority 2005, published 2007).

Bounds are passed on as bounds.

Data set [1] relates to mice. The experiment in a line: Acute toxicity after one-time intravenous administration in mice. It is filed as in vivo. Conditions: one-time i.v., observation period of 7 days, determined preliminarily. Here is the method:
After intravenous administration of the gadolinium complexes (I-X) in mice (n=3; rate of injection: 2 ml/min), the acute systemic compatibility (LD50) was determined preliminarily. In each case, several dosages with an observation period of 7 days were examined. The acute toxicities that are to be expected can be seen in Table 1.

The nature of data set [2]: Plasma kinetics after intravenous administration in rats (ICP-AES). It is filed as in vivo. Conditions: i.v., 50 μmol of total gadolinium/kg of body weight. The procedure:
After intravenous administration of 50 μmol of total gadolinium/kg of body weight of the gadolinium complexes (I-X) in rats (n=3), blood samples were taken via a catheter in the common carotid artery at different points in time ([…] to 24 hours p.i.), the metal content was determined by means of atomic emission spectrometry (ICP-AES) and converted to plasma values via a conversion factor (0.625). The elimination half-life was calculated by means of special software (WinNonlin) from the plasma concentrations.

Data set [3] is described as follows: Relaxivity in water (NMR pulse spectrometer Minispec PC 20). It is filed as physicochemical. Conditions: 40° C., 0.47 T. The procedure:
The T1 and T2 relaxation times of water and plasma (from cows) with increasing concentrations of the gadolinium complexes (I-XIII) contained therein were determined at 40° C. with use of an NMR pulse spectrometer (Minispec PC 20) at 0.47 T, and the relaxivity was determined.

A short description of data set [4]: Excretion after intravenous administration in rats (ICP-AES). Format: in vivo. Particulars: i.v., 50 μmol of total gadolinium/kg of body weight, 14 days after administration. From the text: After intravenous administration of 50 μmol of total gadolinium/kg of body weight of the gadolinium complexes (I-X) in rats (n=3), the metal content was l determined in fractions up to 14 days after administration by means of atomic emission spectrometry (ICP-AES) in the excretion media of urine and feces, as well as in the body (the rest of the body).

The subject of data set [5] is arteriosclerotic plaque. The data set is described as follows: MRT visualization of arteriosclerotic plaque. Format: in vivo, Watanabe rabbits (WHHL rabbits). Particulars: WHHL rabbits, i.v. 50 μmol or 100 μmol of Gd/kg, 6 or 24 hours, T1-weighted IR-TFL; not in vascular wall of healthy control animals. Here is the method:
The pictures of FIG. 2 show MR images of the aorta 6 or 24 hours after intravenous administration of 50 μmol or 100 μmol of Gd/kg of body weight of gadolinium complex I (title substance of Example 1f), gadolinium complex IV (title substance of Example 11e), and gadolinium complex VIII (title substance of Example 16c) in Watanabe rabbits (WHHL rabbits; genetically-induced arteriosclerosis) and in control animals without arteriosclerosis (white New Zealands). […] The localization of the plaque, especially in the aortic arch as well as in the vascular passages, was confirmed by means of Sudan-3 staining. With this test, the suitability of the compounds according to the invention as markers for arteriosclerotic plaque could be shown.

`CC(C(=O)NCC(=O)NCCCC[C@H](NC(=O)CO[C@H]1O[C@H](CO)[C@@H](O)[C@H](O)[C@@H]1O)C(=O)NCCCC(F)(F)C(F)(F)C(F)(F)C(F)(F)C(F)(F)C(F)(F)F)N1CCN(CC(=O)[O-])CCN(CC(=O)[O-])CCN(CC(=O)[O-])CC1.[Gd+3]` (stereo partly drawn) [Gadolinium complex II, Gadolinium complex of 6-N-[1,4,7-tris-(carboxylatomethyl)-1,4,7,10-tetraazacyclododecane-10-N-(pentanoyl-3-aza-4-oxo-5-methyl-5-yl)]-2-N-(1-O-α-d-carbonylmethylmannopyranose)-L-lysine-[(1H,1H,2H,2H-perfluorooctyl)-methyl]-amide]: the “LD50 Mouse” value in data set [1] stood at 10 mmol/kg. In addition, in data set [2], the “Elimination Half-Life of Blood” value came to 0.9 hour^ hours and the “Gd Content of Blood 24 Hours p.i.” value is 0.0%. Besides, the “Relaxivity R1(w)” value in data set [3] was “R1(w): 5.7 l/(mmol * s)”. Further, in data set [4], the “Body Retention 14 days” value was 0.0%.
Take `CC(C(=O)NCC(=O)NCCCC[C@H](NC(=O)CO[C@H]1O[C@H](CO)[C@@H](O)[C@H](O)[C@@H]1O)C(=O)NCCCOCCC(F)(F)C(F)(F)C(F)(F)C(F)(F)C(F)(F)C(F)(F)C(F)(F)C(F)(F)F)N1CCN(CC(=O)[O-])CCN(CC(=O)[O-])CCN(CC(=O)[O-])CC1.[Gd+3]` (stereo partly drawn) [Gadolinium complex III, Gadolinium complex of 6-N-[1,4,7-tris-(carboxylatomethyl)-1,4,7,10-tetraazacyclododecane-10-N-(pentanoyl-3-aza-4-oxo-5-methyl-5-yl)]-2-N-(1-O-α-d-carbonylmethylmannopyranose)-L-lysine-[(1H,1H,2H,2H,4H,4H,5H,5H-3-oxa-perfluorotridecyl)-methyl]-amide]: in data set [1], the “LD50 Mouse” value is “≧10 mmol/kg”. Besides, in data set [2], the “Elimination Half-Life of Blood” value was determined as 6.2 h and the “Gd Content of Blood 24 Hours p.i.” value stood at 1.6%. In addition, the “Relaxivity R1(w)” value in data set [3] is reported as “R1(w): 17.8 l/(mmol * s)”. The “Body Retention 14 days” value in data set [4] turned out to be 1.5%.
Turning to `CC(C(=O)NCC(=O)NCCCC[C@H](NC(=O)COCC(CO)(CO)CO)C(=O)NCCCC(F)(F)C(F)(F)C(F)(F)C(F)(F)C(F)(F)C(F)(F)C(F)(F)C(F)(F)F)N1CCN(CC(=O)[O-])CCN(CC(=O)[O-])CCN(CC(=O)[O-])CC1.[Gd+3]` (stereo partly drawn) [Gadolinium complex VI, Gadolinium complex of 6-N-[1,4,7-tris-(carboxylatomethyl)-1,4,7,10-tetraazacyclododecane-10-N-(pentanoyl-3-aza-4-oxo-5-methyl-5-yl)]-2-N-[(3-hydroxy-2,2-dihydroxymethylpropoxy)-acetyl]-L-lysine-[(1H,1H,2H,2H-perfluorodecyl)-methyl]-amide], in data set [1], the “LD50 Mouse” value is given as over 10 mmol/kg. Further, in data set [2], the “Elimination Half-Life of Blood” value came out at 7.7 h and the “Gd Content of Blood 24 Hours p.i.” value is 2.6%. The “Relaxivity R1(w)” value in data set [3] is given as “R1(w): 16.9 l/(mmol * s)”. Moreover, the “Body Retention 14 days” value in data set [4] stood at 0.0%.
On to `CC(C(=O)NCC(=O)N[C@@H](CCCCNC(=O)CO)C(=O)NCCCC(F)(F)C(F)(F)C(F)(F)C(F)(F)C(F)(F)C(F)(F)C(F)(F)C(F)(F)F)N1CCN(CC(=O)[O-])CCN(CC(=O)[O-])CCN(CC(=O)[O-])CC1.[Gd+3]` (stereo partly drawn) [Gadolinium complex IX, Gadolinium complex of 2-N-[1,4,7-tris-(carboxylatomethyl)-1,4,7,10-tetraazacyclododecane-10-N-(pentanoyl-3-aza-4-oxo-5-methyl-5-yl)]-6-N-(2-hydroxyacetyl)-L-lysine-[(1H,1H,2H,2H-perfluorodecyl)-methyl]-amide], for which the “LD50 Mouse” value in data set [1] is listed as over 10 mmol/kg. Moreover, in data set [2], the “Elimination Half-Life of Blood” value turned out to be 4.3 h and the “Gd Content of Blood 24 Hours p.i.” value is 0.5%. Further, in data set [3], the “Relaxivity R1(w)” value is listed as “R1(w): 18.8 l/(mmol * s)”. Also, the “Body Retention 14 days” value in data set [4] is reported as 0.2%.
In the case of `COCCN(CCC(F)(F)C(F)(F)C(F)(F)C(F)(F)C(F)(F)C(F)(F)C(F)(F)C(F)(F)F)C(=O)[C@H](CCCCNC(=O)CNC(=O)C(C)N1CCN(CC(=O)[O-])CCN(CC(=O)[O-])CCN(CC(=O)[O-])CC1)NC(=O)CO[C@H]1O[C@H](CO)[C@@H](O)[C@H](O)[C@@H]1O.[Gd+3]` (stereo partly drawn) [Gadolinium complex V, Gadolinium complex of 6-N-[1,4,7-tris-(carboxylatomethyl)-1,4,7,10-tetraazacyclododecane-10-N-(pentanoyl-3-aza-4-oxo-5-methyl-5-yl)]-2-N-(1-O-α-d-carbonylmethylmannopyranose)-L-lysine-N-(2-methoxyethyl)-N-(1H,1H,2H,2H-perfluorodecyl)-amide], the “LD50 Mouse” value in data set [1] is reported as 15 mmol/kg. Also, in data set [2], the “Elimination Half-Life of Blood” value turned out to be 6.7 h and the “Gd Content of Blood 24 Hours p.i.” value stood at 2.1%. Also, the “Relaxivity R1(w)” value in data set [3] is recorded as “R1(w): 18.3 l/(mmol * s)”. Besides, the “Body Retention 14 days” value in data set [4] is listed as 0.0%.
`COCCN(CCOCCC(F)(F)C(F)(F)C(F)(F)C(F)(F)C(F)(F)C(F)(F)C(F)(F)C(F)(F)F)C(=O)[C@H](CCCCNC(=O)CNC(=O)C(C)N1CCN(CC(=O)[O-])CCN(CC(=O)[O-])CCN(CC(=O)[O-])CC1)NC(=O)CO[C@H]1O[C@H](CO)[C@@H](O)[C@H](O)[C@@H]1O.[Gd+3]` (stereo partly drawn) [Gadolinium complex IV, Gadolinium complex of 6-N-[1,4,7-tris-(carboxylatomethyl)-1,4,7,10-tetraazacyclododecane-10-N-(pentanoyl-3-aza-4-oxo-5-methyl-5-yl)]-2-N-(1-O-α-d-carbonylmethylmannopyranose)-L-lysine-N-(2-methoxyethyl)-N-(1H,1H,2H,2H,4H,4H,5H,5H-3-oxa-perfluorotridecyl)-amide]: the “LD50 Mouse” value in data set [1] is on record as “≧15 mmol/kg”. Besides, in data set [2], the “Elimination Half-Life of Blood” value was determined as 5.3 h and the “Gd Content of Blood 24 Hours p.i.” value amounted to 1.8%. The “MR signal in the arteriosclerotic plaque” value in data set [5] was “strong signal rise”. The “Relaxivity R1(w)” value in data set [3] was “R1(w): 16.6 l/(mmol * s)”. Besides, the “Body Retention 14 days” value in data set [4] worked out at 2.6%.
`COC[C@H]1O[C@H](OCC(=O)NC(CCCCNC(=O)CNC(=O)C(C)N2CCN(CC(=O)[O-])CCN(CC(=O)[O-])CCN(CC(=O)[O-])CC2)C(=O)N(C)CCC(F)(F)C(F)(F)C(F)(F)C(F)(F)C(F)(F)C(F)(F)C(F)(F)C(F)(F)F)[C@@H](OC)[C@@H](OC)[C@@H]1OC.[Gd+3]` (stereo partly drawn) [Gadolinium complex VII, Gadolinium complex of 6-N-[1,4,7-tris-(carboxylatomethyl)-1,4,7,10-tetraazacyclododecane-10-N-(pentanoyl-3-aza-4-oxo-5-methyl-5-yl)]-2-N-[1-O-α-d-carbonylmethyl-(2,3,4,6-tetra-O-methyl)mannopyranose]-L-lysine-[(1H,1H,2H,2H-perfluorodecyl)-methyl]-amide]: the “LD50 Mouse” value in data set [1] is “≦15 mmol/kg”. In data set [2], the “Elimination Half-Life of Blood” value came to 5.4 h and the “Gd Content of Blood 24 Hours p.i.” value was determined as 1.2%. The “Relaxivity R1(w)” value in data set [3] is “R1(w): 14.7 l/(mmol * s)”. In addition, in data set [4], the “Body Retention 14 days” value was 5.4%.
